Reference: US20250222066A1, “COMPOSITIONS AND METHODS OF TREATING, PREVENTING OR INHIBITING A FACULTATIVE ANAEROBE INFECTION” (UNIVERSITY OF UTAH RESEARCH FOUNDATION, priority 2022, published 2025)
“Also recorded” adds a separate entry of the source. Where two headings read alike, the source gives them in different places.

Tests used:
[1] = test system: S. aureus ATCC 6538 biofilms; assay: CDC biofilm reactor coupons, 24 h antibiotic treatment, bioburden by serial dilution plating; assay type: cell-based; conditions: for anti-biofilm efficacy of hypoxia-activated prodrug compared with antibiotic controls: 1 mM compound with 1 mM nafcillin or 1 mM gentamicin, 24 h; for synergy of the companion antibiotic with metronidazole against biofilms: 24 h treatment; for eradication of biofilms: concentrations over 60,000 X the MIC, 6,000 X the nephrotoxic and ototoxic thresholds, 25-50 X the cytotoxic limit
Description: For determining the broad-spectrum utility of metronidazole, respective bacterial species were grown into stationary biofilms using a 2- or 3-day species-specific growth protocol in a CDC biofilm reactor on standard 0.5 in polycarbonate coupons. Each reactor holds up to 24 coupons/samples with adherent biofilms. Bacterial bioburden, represented as colony forming units (CFUs), from five reactor samples/coupons (n=5) were quantified by first dispersing the bacterial biofilms in 2 ml of PBS by standardized vortex-sonication technique and serial-dilution plating. Importantly, this quantification technique provides bioburden data with logarithmic sensitivity. […] The gray shaded regions represent standard deviations.
(§1) Three groups of 5 coupons/samples (n=5) were placed into 2 ml treatments either containing 0.5-1 mg/ml of gentamicin, metronidazole, or combinations thereof (in CAMHB) and incubated for 24 h at 37° C. Importantly, the total antibiotic concentration (mg/ml) was fixed for each sample to enable assessment of compound synergy.
After the 24 h treatment, the bacteria adhered to coupons were quantified by rinsing the samples very gently in excess PBS followed by vortexing and sonicating to disperse the biofilm in 2 ml PBS and subsequent serial-dilution plating. The bioburden of the adhered bacteria is represented by the blue bars in FIG. 1. […] Broth bioburden is represented by the red bars in FIG. 1.
Twelve hypoxia activated prodrugs from three categories were tested: nitroimidazoles (same class as metronidazole), nitrofurans, and anti-tumor agents.
To test each compound, the contents of an entire CDC-biofilm reactor (24 coupons/biofilm samples) were used (see FIG. 2 and FIG. 3). […] Using the methods described above, 4 reactor samples/coupons served as reactor controls. The remaining 20 samples/coupons were split into 4 treatment groups of 5 samples each (n=5).
For testing against S. aureus biofilms, the compounds were prepared at a concentration of 1 mM in CAMHB; coupons were treated in 2 ml for 24 h. Compounds were intentionally prepared in units of molarity rather than the more common weight/volume ratios of clinicians.
This choice was made for two reasons.
Two of the treatment groups were the same for each test: one in 1 mM nafcillin (a β-lactam antibiotic) and a second in 1 mM gentamicin. […] For comparison for most compounds 1 mM ranges from ˜0.15-0.5 mg/ml, 1 or 2 Log 2 dilutions below tests in FIG. 1. […] The other compounds were tested at the same concentrations.
Quantification of the post-treatment residual bioburden was performed by dispersing biofilm bacteria into the 2 ml treatments with its constituent bacteria by vortexing, and sonicating. […] The pelleted bacteria were resuspended and measured by the serial dilution plating technique. Thus, the values presented in FIGS. 2, 3 and 4 represent the cumulative change in bioburden from the surface-attached biofilms and bacteria in the treatments.

[2] = test system: P. aeruginosa ATCC 27853 biofilms; assay: as above; assay type: cell-based; conditions: for anti-biofilm efficacy of hypoxia-activated prodrug compared with antibiotic controls: 1 mM compound with cefepime or 0.1 mM gentamicin, 24 h
Description: Twelve hypoxia activated prodrugs from three categories were tested: nitroimidazoles (same class as metronidazole), nitrofurans, and anti-tumor agents. For the screening, S. aureus ATCC 6538 was used with the best performing compounds subsequently tested against P. aeruginosa ATCC 27853; these pathogens can then be used as inocula for infection development in the animal work.
To test each compound, the contents of an entire CDC-biofilm reactor (24 coupons/biofilm samples) were used (see FIG. 2 and FIG. 3). These experiments were designed to have multiple internal controls to enable cross-data comparisons (see FIG. 4). Using the methods described above, 4 reactor samples/coupons served as reactor controls. The remaining 20 samples/coupons were split into 4 treatment groups of 5 samples each (n=5).
Two of the treatment groups were the same for each test: one in 1 mM nafcillin (a β-lactam antibiotic) and a second in 1 mM gentamicin. Likewise, the second two treatment groups had either 1 mM nafcillin or 1 mM gentamicin both with the addition of 1 mM of the compound tested. For comparison for most compounds 1 mM ranges from ˜0.15-0.5 mg/ml, 1 or 2 Log 2 dilutions below tests in FIG. 1. For testing of P. aeruginosa biofilms (FIG. 3), the β-lactam cefepime was substituted for nafcillin due to resistance and the gentamicin concentration was reduced from 1 to 0.1 mM because of excessive kill compared with S. aureus biofilms. The other compounds were tested at the same concentrations.
Quantification of the post-treatment residual bioburden was performed by dispersing biofilm bacteria into the 2 ml treatments with its constituent bacteria by vortexing, and sonicating. The antibiotic was removed from a representative aliquot (1 ml) sample, alternating steps of centrifugally pelleting the bacteria, removing 90% of the solution, replacing 90% of the solution and repeating 2 additional times thereby decreasing the antibiotic in solution below the MIC values. The pelleted bacteria were resuspended and measured by the serial dilution plating technique. Thus, the values presented in FIGS. 2, 3 and 4 represent the cumulative change in bioburden from the surface-attached biofilms and bacteria in the treatments.

S. epidermidis = assay: Minimum inhibitory concentration (MIC) assay, planktonic bacteria; assay type: cell-based, Staphylococcus epidermidis; conditions: for MIC: Staphylococcus epidermidis, for 1:1 combinations MIC is the sum of both compounds
Description: as §1
(§2) For comparison to these biofilm tests with adjunctive metronidazole, the MIC was determined for each organism and each compound tested.

S. aureus biofilms = assay: Radical-scavenger edaravone protection of biofilms from metronidazole (FIG. 6); assay type: cell-based; conditions: 0-2 mg/ml edaravone with 0.25 mg/ml nafcillin and 4 mg/ml metronidazole, 24 h
Description: . S. aureus biofilms grown using a CDC biofilm reactor and treated with 2 ml solutions of CAMHB in 0.25 mg/ml nafcillin (serving as a bacteriostatic agent) and 4 mg/ml metronidazole (with herein established activity against biofilms) and the indicated concentration of the potent radical-scavenger edaravone (0-2 mg/ml). After treatment, the biofilm coupons were removed from the treatment broth, rinsed and the bioburden quantified using a method of vortexing, sonicating, and serial dilution plating.
In one experiment, S. aureus biofilms were subjected to a bacteriostatic solution of nafcillin (0.25 mg/ml) and an aggressive dose of metronidazole (4 mg/ml). The coupons were divided evenly into 5 groups (n=8) which were treated with serial concentrations of the potent radical scavenger edaravone ranging from 0-2 mg/ml. […]. In a second experiment, biofilms were treated with a small sublethal dose of the nitroimidazole pimonidazole (0.06 mg/ml). Like the other nitroimidazoles, pimonidazole is reductively activated in hypoxic cells by a nitro-reductase enzyme. In hypoxia, the reduced compound indiscriminately forms adducts with cellular components including adducts with thiol groups which can be recognized with a primary antibody by immunohistochemical staining (FIG. 5A and FIG. 9A) (Masaki, Y. et al. PLOS One 11, e0161639 (2016)). […]

[3] = test system: biofilm-contaminated fixation plates; assay: Sheep model of biofilm-related orthopedic (musculoskeletal) infection; assay type: in vivo
Description: Use of the Pouch device in a sheep model of biofilm-related orthopedic infection. The Pouch device and two clinical standards of care (IV-vancomycin, and gentamicin-loaded Stimulan® beads) were tested in a sheep model of biofilm-related orthoepic infection. Briefly, the proximal medial aspect of the right tibia is subjected to a blast from an air cannon to simulate traumatic soft tissue damage. In a surgical procedure, the periosteum is stripped, and two biofilm-contaminated fixation plates are situated above osteotomized fractures. At necropsy, one of the fixation plates and the surrounding tissue serve for microbiological analysis whereas the plate and tissues of the second site are used for histological analysis. Four groups of sheep (n=5/group) were used in testing. The first group served as a positive control of infection. The Pouch device was tested in one group. The Pouch device was placed during the surgery and refilled daily for 10 days with 480 mg of gentamicin sulfate, 1 g of vancomycin, and 36 mg of rifampin. Ten days after surgery the Pouch device was removed, and the sheep monitored for an additional 11 days; endpoint was 21 days for the groups. For comparison, clinical standards of care were tested in the remaining two groups: IV vancomycin, and Gentamicin-loaded Stimulan® beads. […]

E. coli = assay: Minimum inhibitory concentration (MIC) assay, planktonic bacteria; assay type: cell-based, Escherichia coli; conditions: for 1:1 combinations MIC is the sum of both compounds
Description: as §2

K. pneumoniae = assay: as above; assay type: cell-based, Klebsiella pneumoniae; conditions: for 1:1 combinations MIC is the sum of both compounds
Description: as §2

S. aureus = assay: as above; assay type: cell-based
Excerpt: Shortcomings of clinical antibiotic susceptibility assays. The antibiotic-susceptibility assays used to guide clinical treatment and prophylaxis rely on actively-dividing planktonic bacteria (Williams, D. L. & Costerton, J. W. J Biomed Mat Res B 100, 1163-1169 (2011)). Among the assays performed by clinical reference laboratories are the minimum inhibitory concentration (MIC), and disk diffusion (Kirby-Bauer) assays. The ubiquity of these assays is owed to the fact that they are high throughput, relatively quick to perform, repeatable, and have short turnaround times. They inform clinicians regarding which antibiotic are applicable for a given infection from a simple site swab, blood, or aspirate sample. […] Thus, when a compound, such as metronidazole performs poorly in an MIC assay, a physician would be thoroughly dissuaded from using it. Likewise, in drug-development, a high MIC value would exclude potentially useful anti-biofilm agents from candidate drug libraries. […] Using orthodox clinical methodology, there would be no basis to administer metronidazole in the treatment of a S. aureus-related infections, despite its exceptional efficacy against bacterial biofilms of the same isolates. The MIC assay fails to provide any information about susceptibility profiles of bacteria that reside in the biofilm phenotype.
as §2

A. baumannii = assay: as above; assay type: cell-based; conditions: for 1:1 combinations MIC is the sum of both compounds
Description: as §2

P. aeruginosa = assay: as above; assay type: cell-based; conditions: for 1:1 combinations MIC is the sum of both compounds
Description: as §2

MRSA USA300 = assay: as above; assay type: cell-based; conditions: for 1:1 combinations MIC is the sum of both compounds
Description: as §2

Molecule: Cn1c(COP(=O)(NCCBr)NCCBr)cnc1[N+](=O)[O-] [Evofosfamide]
- anti-biofilm efficacy of hypoxia-activated prodrug compared with antibiotic controls [1]: significant activity
- anti-biofilm efficacy of hypoxia-activated prodrug compared with antibiotic controls [2]: significant activity

Molecule: C[C@H]1COc2c(N3CCN(C)CC3)c(F)cc3c(=O)c(C(=O)O)cn1c23 [Levofloxacin, levofloxacin]
- MIC (S. epidermidis; aerobic, read-out: Aerobic MIC): 0.125 µg/mL
- MIC (S. epidermidis; anaerobic, read-out: Anaerobic MIC): 0.125 µg/mL

Molecule: Nc1n[n+]([O-])c2ccccc2[n+]1[O-] [Tirapazamine]
- anti-biofilm efficacy of hypoxia-activated prodrug compared with antibiotic controls [1]: significant activity
- anti-biofilm efficacy of hypoxia-activated prodrug compared with antibiotic controls [2]: significant activity

Molecule: CO/N=C(\C(=O)N[C@@H]1C(=O)N2C(C(=O)[O-])=C(C[N+]3(C)CCCC3)CS[C@H]12)c1csc(N)n1 [cefepime]
- synergy of the companion antibiotic with hypoxia-activated prodrugs ([2]; Gram-negative organisms): least synergistic

Molecule: CC1=NN(c2ccccc2)C(=O)C1 [edaravone]
- effect on the killing of biofilms by metronidazole (S. aureus biofilms): neutralized the killing-effect of metronidazole in a dose dependent manner; also recorded: proportionally negates the killing power of metronidazole; also recorded: proportionally negate killing effects of metronidazole

Molecule: O=C1OC(CN2CCOCC2)CN1/N=C/c1ccc([N+](=O)[O-])o1 (stereo not shown) [furaltadone]
- anti-biofilm efficacy of hypoxia-activated prodrug compared with antibiotic controls [1]: remarkable efficacy
- anti-biofilm efficacy with β-lactam antibiotics ([1]; paired with β-lactam (nafcillin; cefepime for P. aeruginosa)): considerable efficacy
- anti-biofilm efficacy of hypoxia-activated prodrug compared with antibiotic controls [2]: remarkable efficacy

Molecule: CCOc1ccc2ccccc2c1C(=O)N[C@@H]1C(=O)N2[C@@H]1SC(C)(C)[C@@H]2C(=O)O [nafcillin]
- synergy of the companion antibiotic with metronidazole against biofilms [1]: did not display synergy nor antagonism; also recorded: least synergistic

Molecule: NC(=O)N/N=C/c1ccc([N+](=O)[O-])o1 [nitrofurazone]
- anti-biofilm efficacy of hypoxia-activated prodrug compared with antibiotic controls [1]: showed benchtop anti-biofilm utility

Molecule: CN[C@H](CC(C)C)C(=O)N[C@H]1C(=O)N[C@@H](CC(N)=O)C(=O)N[C@H]2C(=O)N[C@H]3C(=O)N[C@H](C(=O)N[C@H](C(=O)O)c4cc(O)cc(O)c4-c4cc3ccc4O)[C@H](O)c3ccc(c(Cl)c3)Oc3cc2cc(c3O[C@@H]2O[C@H](CO)[C@@H](O)[C@H](O)[C@H]2O[C@H]2C[C@](C)(N)[C@H](O)[C@H](C)O2)Oc2ccc(cc2Cl)[C@H]1O [vancomycin]
- bioburden levels compared to the positive control ([3]; 21 days): not statistically significantly different
- reduction in bacterial bioburden from the initial inocula ([3]; 21 days after inoculation, treatment for 10 days, n=5 sheep/group): 2.5 log10 units
- eradication of biofilms [1]: failed to eradicate

Molecule: gentamicin
- resistance of the isolate (S. epidermidis; isolate used in FIG. 1): complete resistance
- Aerobic MIC (E. coli; aerobic): 0.5 µg/mL
- Anaerobic MIC (E. coli; anaerobic): 4 µg/mL
- Aerobic MIC (K. pneumoniae; aerobic): 2 µg/mL
- Anaerobic MIC (K. pneumoniae; anaerobic): 4 µg/mL
- Aerobic MIC (S. aureus; aerobic, for 1:1 combinations MIC is the sum of both compounds): 1 µg/mL
- Anaerobic MIC (S. aureus; anaerobic, for 1:1 combinations MIC is the sum of both compounds): 8 µg/mL
- MIC against S. aureus (S. aureus; isolate used in biofilm tests): 1 µg/mL
- Aerobic MIC (A. baumannii): 2 µg/mL
- Aerobic MIC (P. aeruginosa; aerobic): 2 µg/mL
- Anaerobic MIC (P. aeruginosa; anaerobic): 2 µg/mL
- Aerobic MIC (MRSA USA300; aerobic): 2 µg/mL
- Anaerobic MIC (MRSA USA300; anaerobic): 16 µg/mL
- synergy of the companion antibiotic with metronidazole against biofilms [1]: synergistic; also recorded: considerably strengthened; also recorded: strong synergy
- eradication of biofilms [1]: failed to eradicate
